Values after ≈ are worked out from the molar mass of the structure shown. Active and inactive are the calls of the source. No cut-off for these calls is given here.
Experiments:
[1] = tested on: Pseudomonas aeruginosa; test: Synergistic antibacterial activity against Pseudomonas aeruginosa 21-7 assessed as aztreonam MIC at 128 ug/ml incubated for 18 hrs by checkerboard method; assay type: functional; details: dose 128 µg/ml
[2] = tested on: Pseudomonas aeruginosa; test: Antibacterial activity against Pseudomonas aeruginosa 16-2 infected in Galleria mellonella assessed as larvae survival rate at 100 mg/kg after 96 hrs of innoculation; assay type: functional
[3] = tested on: Pseudomonas aeruginosa; test: Antibacterial activity against Pseudomonas aeruginosa 13-35 assessed as inhibition of bacterial growth incubated for 18 hrs by agar dilution method; assay type: functional
[4] = tested on: Pseudomonas aeruginosa; test: Antibacterial activity against Pseudomonas aeruginosa PAO1 at 128 ug/ml measured upto 24 hrs by time-kill assay; assay type: functional, organism-based; details: dose 128.0 µg/ml
[5] = tested on: Pseudomonas aeruginosa; test: Antibacterial activity against Pseudomonas aeruginosa 16-2 assessed as inhibition of bacterial growth incubated for 18 hrs by agar dilution method; assay type: functional
[6] = tested on: Pseudomonas aeruginosa; test: Synergistic antibacterial activity against Pseudomonas aeruginosa 21-2 assessed as aztreonam MIC at 128 ug/ml incubated for 18 hrs by checkerboard method; assay type: functional; details: dose 128 µg/ml
[7] = tested on: Pseudomonas aeruginosa; test: Synergistic antibacterial activity against Pseudomonas aeruginosa 16-11 assessed as aztreonam MIC in CAMH broth medium supplemented with 20.99 to 21.09 mM Mg2+ by checkerboard assay; assay type: functional
[8] = tested on: Pseudomonas aeruginosa; test: Synergistic antibacterial activity against Pseudomonas aeruginosa 23-Y364 assessed as aztreonam MIC at 128 ug/ml incubated for 18 hrs by checkerboard method; assay type: functional; details: dose 128 µg/ml
[9] = tested on: Pseudomonas aeruginosa; test: Antibacterial activity against Pseudomonas aeruginosa 16-2 assessed as decrease in log10 CFU at 128 ug/ml measured after 24 hrs in presence of aztreonam by time-kill assay; assay type: functional; details: dose 128 µg/ml
[10] = tested on: Pseudomonas aeruginosa; test: Antibacterial activity against Pseudomonas aeruginosa 13-3 assessed as inhibition of bacterial growth incubated for 18 hrs by agar dilution method; assay type: functional
[11] = tested on: Pseudomonas aeruginosa; test: Synergistic antibacterial activity against Pseudomonas aeruginosa PAO1 assessed as aztreonam MIC at 128 ug/ml incubated for 18 hrs by checkerboard method; assay type: functional; details: dose 128 µg/ml
[12] = tested on: Pseudomonas aeruginosa; test: Antibacterial activity against Pseudomonas aeruginosa 12-1 assessed as inhibition of bacterial growth incubated for 18 hrs by agar dilution method; assay type: functional
[13] = tested on: Pseudomonas aeruginosa; test: Antibacterial activity against Pseudomonas aeruginosa PAO1 assessed as decrease in log10 CFU at 128 ug/ml measured after 24 hrs in presence of aztreonam by time-kill assay; assay type: functional; details: dose 128 µg/ml
[14] = tested on: Pseudomonas aeruginosa; test: Antibacterial activity against Pseudomonas aeruginosa 16-2 at 128 ug/ml measured upto 24 hrs by time-kill assay; assay type: functional, organism-based; details: dose 128.0 µg/ml
[15] = tested on: Pseudomonas aeruginosa; test: Synergistic antibacterial activity against Pseudomonas aeruginosa 12-1 assessed as aztreonam MIC in CAMH broth medium supplemented with 0.41 to 0.51 mM Mg2+ by checkerboard assay; assay type: functional
[16] = tested on: Pseudomonas aeruginosa; test: Antibacterial activity against Pseudomonas aeruginosa 19-55 assessed as inhibition of bacterial growth incubated for 18 hrs by agar dilution method; assay type: functional
[17] = tested on: Pseudomonas aeruginosa; test: Antibacterial activity against Pseudomonas aeruginosa 16-2 at 128 ug/ml measured upto 24 hrs in presence of aztreonam by time-kill assay; assay type: functional, organism-based; details: dose 128.0 µg/ml
[18] = tested on: Pseudomonas aeruginosa; test: Synergistic antibacterial activity against Pseudomonas aeruginosa PAO1 assessed as aztreonam MIC in CAMH broth medium supplemented with 20.99 to 21.09 mM Mg2+ by checkerboard assay; assay type: functional
[19] = tested on: Pseudomonas aeruginosa; test: Synergistic antibacterial activity against Pseudomonas aeruginosa 13-17 assessed as aztreonam MIC at 128 ug/ml incubated for 18 hrs by checkerboard method; assay type: functional; details: dose 128 µg/ml
[20] = tested on: Pseudomonas aeruginosa; test: Synergistic antibacterial activity against Pseudomonas aeruginosa 16-11 assessed as aztreonam MIC in CAMH broth medium supplemented with 0.41 to 0.51 mM Mg2+ by checkerboard assay; assay type: functional
[21] = tested on: Pseudomonas aeruginosa; test: Synergistic antibacterial activity against Pseudomonas aeruginosa 13-35 assessed as aztreonam MIC at 128 ug/ml incubated for 18 hrs by checkerboard method; assay type: functional; details: dose 128 µg/ml
[22] = tested on: Pseudomonas aeruginosa; test: Inhibition of Pseudomonas aeruginosa 26 MexAB-OprM assessed as accumulation of Hoechst […] at 64 ug/ml; details: dose 64.0 µg/ml
[23] = tested on: Pseudomonas aeruginosa; test: Synergistic antibacterial activity against Pseudomonas aeruginosa 23-Y372 assessed as aztreonam MIC at 128 ug/ml incubated for 18 hrs by checkerboard method; assay type: functional; details: dose 128 µg/ml
[24] = tested on: Pseudomonas aeruginosa; test: Synergistic antibacterial activity against Pseudomonas aeruginosa 23-Y539 assessed as aztreonam MIC at 128 ug/ml incubated for 18 hrs by checkerboard method; assay type: functional; details: dose 128 µg/ml
[25] = tested on: Pseudomonas aeruginosa; test: Antibacterial activity against Pseudomonas aeruginosa PAO1 infected in Galleria mellonella assessed as increase in larvae survival at 100 mg/kg measured after 96 hrs post inoculation in presence of 25 mg/kg aztreonam; assay type: functional
[26] = tested on: Pseudomonas aeruginosa; test: Synergistic antibacterial activity against Pseudomonas aeruginosa PAO1 assessed as aztreonam MIC in CAMH broth medium supplemented with 0.41 to 0.51 mM Mg2+ by checkerboard assay; assay type: functional
[27] = tested on: Pseudomonas aeruginosa; test: Antibacterial activity against Pseudomonas aeruginosa PAO1 infected in Galleria mellonella assessed as larvae survival rate at 100 mg/kg measured after 96 hrs post inoculation in presence of 50 mg/kg aztreonam; assay type: functional

Question: With `NCCC[C@H](NC(=O)C[C@@H](N)Cc1ccccc1)C(=O)Nc1ccc2ccccc2c1` as the compound, how does the MIC [1] read?
Answer: 64 mg/L

Question: What about the Activity [2] of the same compound?
Answer: 20%

Question: And the MIC [3]?
Answer: 512 mg/L (≈ 1220 µM)

Question: What about the Activity [4] of the same compound?
Answer: inactive

Question: And the MIC [5]?
Answer: 513 mg/L (≈ 1230 µM)

Question: What about the MIC [6] of the same compound?
Answer: 16 mg/L

Question: And the MIC [7]?
Answer: 8 mg/L

Question: What about the MIC [8] of the same compound?
Answer: 8 mg/L

Question: What about the Activity [9] of the same compound?
Answer: >2 log10CFU/ml

Question: And the MIC [10]?
Answer: 512 mg/L (≈ 1220 µM)

Question: And the MIC [11]?
Answer: 2 mg/L

Question: What about the MIC [12] of the same compound?
Answer: 512 mg/L (≈ 1220 µM)

Question: And the Activity [13]?
Answer: >2 log10CFU/ml

Question: What about the Activity [14] of the same compound?
Answer: inactive

Question: What about the MIC [15] of the same compound?
Answer: 16 mg/L

Question: And the MIC [16]?
Answer: 512 mg/L (≈ 1220 µM)

Question: What about the Activity [17] of the same compound?
Answer: Active

Question: And the MIC [18]?
Answer: 8 mg/L

Question: What about the MIC [19] of the same compound?
Answer: 4 mg/L

Question: What about the MIC [20] of the same compound?
Answer: 2 mg/L

Question: What about the MIC [21] of the same compound?
Answer: 4 mg/L

Question: What about the inhibition [22] of the same compound?
Answer: Active

Question: What about the MIC [23] of the same compound?
Answer: 4 mg/L

Question: What about the MIC [24] of the same compound?
Answer: 4 mg/L

Question: And the Activity [25]?
Answer: 40%

Question: And the MIC [26]?
Answer: 2 mg/L

Question: What about the Activity [27] of the same compound?
Answer: 80%

Reference: ChEMBL document CHEMBL5625252, “Synthesis of peptidomimetics as antibiotic adjuvants for combination with aztreonam to combat MDR Pseudomonas aeruginosa” (Eur J Med Chem, 2023)
